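Results reflect a 48-hour exposure of cells in 96-well plates to compound at five concentrations. GI50 marks 50% less growth.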 Activity calls are given as the source filed them. Cut-off read from the data, not from the text of the source: active = GI50 up to about 1.1 µM and inactive = higher.
Tests used:
Assay in all cases: DTP human tumour cell line panel, 48 h
A498 = test system: A498
DLD-1 = test system: DLD-1
HCC 2998 = test system: HCC 2998
HOP-62 = test system: HOP-62
IGROV-1 = test system: IGROV-1
KM12 = test system: KM12
LOX IMVI = test system: LOX IMVI
NCI-H226 = test system: NCI-H226
RPMI-8226 = test system: RPMI-8226
SF-268 = test system: SF-268
SF-539 = test system: SF-539
SK-MEL-2 = test system: SK-MEL-2
SNB-19 = test system: SNB-19
U-251 = test system: U-251
UACC-62 = test system: UACC-62
LXFL 529 = test system: LXFL 529
M14 = test system: M14
Hs-578T = test system: Hs-578T
MCF7 = test system: MCF7
T47D = test system: T47D

Measured: GI50

CC1=C(C(=O)Nc2ccccc2C)C(c2ccc(N(C)C)cc2)C(C(=O)Nc2ccccc2C)=C(C)N1
inactive: A498 > 100 µM | DLD-1 45.9 µM | HCC 2998 34.5 µM | HOP-62 28.6 µM | IGROV-1 > 100 µM | KM12 48.4 µM | LOX IMVI 56.8 µM | NCI-H226 > 100 µM | RPMI-8226 17.1 µM | SF-268 70.5 µM | SF-539 > 100 µM | SK-MEL-2 36.2 µM | SNB-19 > 100 µM | U-251 > 100 µM | UACC-62 44.3 µM

CC(C)(C)C1CC[C@H]2c3c([nH]c4ccccc34)[C@H]3C(=O)N(c4ccc(F)cc4)C(=O)[C@H]3[C@H]2C1 (stereo partly specified)
inactive: A498 29.9 µM | DLD-1 16.8 µM | HCC 2998 13.6 µM | HOP-62 16.5 µM | IGROV-1 17 µM | KM12 14.1 µM | LOX IMVI 20.3 µM | LXFL 529 16 µM | M14 18.5 µM | NCI-H226 19.1 µM | SF-268 13.6 µM | SF-539 18.9 µM | SK-MEL-2 15.8 µM | SNB-19 15.9 µM | U-251 8.75 µM | UACC-62 15.5 µM

CCNC(=O)c1ccc(C)c(/N=N/N(C)C)c1
inactive: DLD-1 > 100 µM | HCC 2998 > 100 µM | HOP-62 > 100 µM | IGROV-1 > 100 µM | KM12 > 100 µM | LOX IMVI > 100 µM | LXFL 529 > 100 µM | M14 > 100 µM | SF-268 77.1 µM | SF-539 > 100 µM | SK-MEL-2 > 100 µM | SNB-19 > 100 µM | U-251 > 100 µM | UACC-62 > 100 µM

CC(C)CCCC(C)C1CCC2C3CC([N+](=O)[O-])=C4CC(O)CCC4(C)C3CCC12C (stereo unspecified)
inactive: A498 21.8 µM | DLD-1 19 µM | HCC 2998 20.2 µM | HOP-62 19.9 µM | IGROV-1 23.8 µM | KM12 16.4 µM | LOX IMVI 19.6 µM | LXFL 529 18.7 µM | M14 13.4 µM | RPMI-8226 5.02 µM | SF-268 24.3 µM | SF-539 11.5 µM | SK-MEL-2 12.4 µM | U-251 15.5 µM | UACC-62 19.9 µM

O=[N+]([O-])c1ccccc1C1SCc2nc3ccccc3n21 (stereo unspecified)
inactive: A498 63 µM | DLD-1 82 µM | HOP-62 92 µM | IGROV-1 36.9 µM | KM12 > 100 µM | LOX IMVI > 100 µM | LXFL 529 92.9 µM | SF-268 > 100 µM | SF-539 > 100 µM | SK-MEL-2 > 100 µM | SNB-19 > 100 µM | U-251 70.6 µM | UACC-62 54 µM

CC1CCC2N(C1)CC1C3(O)CC45OC6(O)C(O)CCC4(C)C6CCC5C3(O)CC(O)C1(O)C2(C)O (stereo unspecified)
inactive: A498 > 77.6 µM | HCC 2998 > 100 µM | HOP-62 > 100 µM | Hs-578T > 100 µM | IGROV-1 > 100 µM | KM12 > 100 µM | LOX IMVI > 100 µM | M14 > 100 µM | MCF7 > 100 µM | NCI-H226 > 100 µM | RPMI-8226 > 100 µM | SF-268 > 100 µM | SF-539 > 100 µM | SK-MEL-2 > 100 µM | SNB-19 > 100 µM | T47D > 100 µM | U-251 > 100 µM | UACC-62 > 100 µM

Nc1ccc(C(=O)NN2C(=O)C(Cl)C2c2cc(Br)cc(Br)c2O)cc1 (stereo unspecified)
inactive: DLD-1 13.3 µM | HCC 2998 16.8 µM | HOP-62 12.1 µM | IGROV-1 13.3 µM | KM12 22.8 µM | LOX IMVI 8.85 µM | LXFL 529 20.1 µM | M14 12.8 µM | NCI-H226 5.82 µM | RPMI-8226 > 100 µM | SF-268 3.98 µM | SF-539 12.8 µM | SK-MEL-2 10.6 µM | SNB-19 34.1 µM | U-251 11.1 µM | UACC-62 4.44 µM

Nc1nc(N)c(-c2ccccc2)c(C(=O)Nc2ccccc2)n1
inactive: A498 > 100 µM | DLD-1 > 100 µM | IGROV-1 > 100 µM | KM12 > 100 µM | LOX IMVI > 100 µM | M14 > 100 µM | NCI-H226 > 100 µM | RPMI-8226 > 100 µM | SF-268 > 100 µM | SF-539 > 100 µM | SK-MEL-2 > 100 µM | SNB-19 > 100 µM | U-251 > 100 µM | UACC-62 > 100 µM

CC1(CO)OC(n2cc(C(=O)NC(=O)OCc3ccccc3)c(=O)[nH]c2=O)CC1O (stereo unspecified)
inactive: A498 > 100 µM | DLD-1 > 100 µM | HOP-62 > 100 µM | IGROV-1 > 100 µM | KM12 > 100 µM | LOX IMVI > 100 µM | LXFL 529 > 100 µM | M14 > 100 µM | NCI-H226 > 100 µM | RPMI-8226 > 100 µM | SF-268 > 100 µM | SF-539 > 100 µM | SNB-19 > 100 µM | U-251 > 100 µM | UACC-62 > 100 µM
